Laboratory results: patent US20240325553A1, “CYTOSTATIC CONJUGATES WITH INTEGRIN LIGANDS” (priority 2018, published 2024)
pIC50: −log10 of the molar value. Like-named read-outs stand apart in the source and are kept apart here. Marks after values point to notes of the source that are not given here.

Columns and labels:
786-O cell line = experiment: Cytotoxicity in vitro (MTT) in the presence and absence of elastase, 786-O; format: cell-based
Method: (§1) Cultivation of cells was performed according to standard procedures with the media recommended by the provider. The cells in a total volume of 100 μL were seeded in a 96-well plate with white bottom (#3610). After a 24 h incubation period at 37° C. and 5% CO2, the medium was changed by adding 90 μL fresh medium. The treatment starts by adding the test compound to the cells in 10 μl of culture medium. Concentrations from 10^−5 M to 10^−13 M in triplicates were chosen followed by an incubation at 37° C. and 5% carbon dioxide. One set of samples were only treated with the test compound whereas to an otherwise identically treated second set of samples also 10 nM elastase was pipetted. After 72 h. the proliferation is detected using the MTT assay (ATCC). At the end of the incubation period the MTT reagent is added to all samples for 4 h, followed by lysis of the cells overnight by addition of the detergent. The dye formed was detected at 570 nm. The proliferation of cells which were not treated with test substance but were otherwise identically treated was defined as the 100% value. (FIG. 1 and table 4).

[1] = tested on: SW-480 xenograft (colon cancer); experiment: In vivo xenotransplantation study, SW-480; parameters: species or system mice; conditions: SW-480, 36 mg/kg i.v., 3 days on, 4 days off, 3 cycles; mean tumor area
Method: (§2) For this purpose, immunocompromised mice were implanted subcutaneously with tumor cells or tumor fragments. […] Intravenous treatments were performed on three consecutive days once daily followed by four days drug holiday without treatments. The tumor size and the body weight were determined at least weekly. The tumor area was detected by means of an electronic caliper [length (mm)×width (mm)]. The experimental groups were ended when the group reached the pre-determined ethical endpoint based on German and European animal welfare regulations. In vivo anti-tumor efficacy is presented as T/C ratio of mean tumor area measured for treatment and control group on the last day at which the vehicle control remained in study (Treatment/Control; mean tumor area of treatment group/mean tumor area of control group. A compound having a T/C below 0.5 is defined as active (i.e., effective). Statistical analysis was assessed using SigmaStat software. A one-way analysis of variance was performed and differences to the control were compared by a pair-wise comparison procedure (Dunn's method).

[2] = tested on: MX1 xenograft (breast cancer); experiment: In vivo xenotransplantation study, MX1; parameters: species or system mice; conditions: MX1, 36 mg/kg i.v., 3 days on, 4 days off, 3 cycles; mean tumor area
Method: as §2

[3] = tested on: NCI-H69 xenograft (lung cancer); experiment: In vivo xenotransplantation study, NCI-H69; parameters: species or system mice; conditions: NCI-H69, 40 mg/kg i.v., 3 days on, 4 days off, 3 cycles; mean tumor area
Method: as §2

Solubility in vehicles = format: physicochemical; conditions: room temperature (25° C.)
Method: Method: For each vehicle to be tested. 0.5-1.0 mg test compound were weighed into a 2 ml Eppendorf vial. 2-3 Glas perls (Ø 3 mm) and 1.0 ml vehicle were added. The vial was shaken at 1400 rpm for 24 hrs at room temperature (25° C.). After this time period the supernatant (approx. 230 μl was transferred to a centrifuge tube. After 30 min at 42 000 rpm the solute was transferred to another vial and diluted with DMSO (1:5 and 1:50). These two dilutions were analyzed by HPLC (read out: area)
• Eluent A: 1 ml Trifluoro acetic acid/L water • Eluent B: 1 ml Trifluoro acetic acid/L acetonitrile • Gradient:
• Column: ZORBAX Extend-C18, 3.0×50 mm, 3, 5 μm • Oven temperature: 30° C. • Detection: 214 and 254 nm • Injection volume: 20 μl
For quantification a calibration curve was obtained from DMSO solution of the test compound ([…], 20 μg/ml and 2.5 μg/ml) by employing the same HPLC method.

[4] = Stability in citric acid buffer at pH 4; format: physicochemical; conditions: 37° C., peak area
Method: Method: 0.15 mg of the test compound were solved in 0.1 ml dimethylsulfoxide and 0.4 ml acetonitrile. For complete dissolution the HPLC vial with the sample solution was shaken and sonicated. Then 1.0 ml of the respective buffer solution (Citrate buffer pH 4; citric acid/sodium hydroxide/sodium chloride Fluka 33643) was added and the sample was vortexed. The sample solution was analysed by HPLC to determine the amount of the test compound and up to two byproducts at a particular time (0, 1, 2 4, 24 hrs) over a period of 24 h at 37° C. t(0) values resulted from a sample immediately taken after vortexing with buffer at RT. The peak areas (in percentage) were used for quantification.
LC & LC/MS purity analysis: The starting material was analyzed for purity by LC; the 24 h sample was additionally analyzed by LC/MS (Waters Quattro Micro).

[5] = Plasma stability in rat plasma; format: in vitro ADME; conditions: 37° C.
Method: For complete dissolution the HPLC vial was shaken and treated with ultrasound. 500 μl of this solution were added to 0.5 mL of rat plasma with vortexing at a temperature of 37° C. Aliquots (10 μL each) were taken at respective time points and analyzed by HPLC to determine the amount of the test compound. All data is given as percent area of the initial compound at t0.

αvβ3 receptor = biological target: T1, αvβ3 receptor (Homo sapiens, UniProt P05106+P06756); experiment: αvβ3 binding test (echistatin SPA)
T1 construct: αvβ3 from human A375 cells was purified analogously to a procedure described by Wong et al; endogenous in cells; host or cells: human A375 cells (receptor purified from the cells)
Method: αvβ3 from human A375 cells was purified analogously to a procedure described by Wong et al. in Molecular Pharmacology 50, 529-537 (1996). In each case, 10 μL of αvβ3 (5 ng) in TBS PH 7.6, 2 mM CaCl2. 1 mM MgCl2. 1% n-octylglucopyranoside (Sigma): 10 μL of test substance in TBS pH 7.6. 0.1% DMSO and 45 μL of TBS pH 7.6. 2 mM CaCl2, 1 mM MgCl2, 1 mM MnCl2 were incubated at room temperature for 1 h. In each case, 25 μL of WGA SPA beads (Amersham, 4 mg/ml) and 10 μL of echistatin (0.1 μCi, Amersham, chloramine-T labelled) were then added. After 16 h at room temperature, the samples were measured in a scintillation measuring apparatus (Wallac 1450).

HT29 cell line = experiment: Cytotoxicity in vitro (MTT) in the presence and absence of elastase, HT29; format: cell-based; conditions: 72 h
Method: as §1

[6] = tested on: 786-O xenograft (renal cancer); experiment: In vivo xenotransplantation study, 786-O; parameters: species or system mice; conditions: 36 mg/kg i.v., 3 days on, 4 days off, 3 cycles, mean tumor area
Method: as §2

T1 sequence (P06756 31-889 limits assumed): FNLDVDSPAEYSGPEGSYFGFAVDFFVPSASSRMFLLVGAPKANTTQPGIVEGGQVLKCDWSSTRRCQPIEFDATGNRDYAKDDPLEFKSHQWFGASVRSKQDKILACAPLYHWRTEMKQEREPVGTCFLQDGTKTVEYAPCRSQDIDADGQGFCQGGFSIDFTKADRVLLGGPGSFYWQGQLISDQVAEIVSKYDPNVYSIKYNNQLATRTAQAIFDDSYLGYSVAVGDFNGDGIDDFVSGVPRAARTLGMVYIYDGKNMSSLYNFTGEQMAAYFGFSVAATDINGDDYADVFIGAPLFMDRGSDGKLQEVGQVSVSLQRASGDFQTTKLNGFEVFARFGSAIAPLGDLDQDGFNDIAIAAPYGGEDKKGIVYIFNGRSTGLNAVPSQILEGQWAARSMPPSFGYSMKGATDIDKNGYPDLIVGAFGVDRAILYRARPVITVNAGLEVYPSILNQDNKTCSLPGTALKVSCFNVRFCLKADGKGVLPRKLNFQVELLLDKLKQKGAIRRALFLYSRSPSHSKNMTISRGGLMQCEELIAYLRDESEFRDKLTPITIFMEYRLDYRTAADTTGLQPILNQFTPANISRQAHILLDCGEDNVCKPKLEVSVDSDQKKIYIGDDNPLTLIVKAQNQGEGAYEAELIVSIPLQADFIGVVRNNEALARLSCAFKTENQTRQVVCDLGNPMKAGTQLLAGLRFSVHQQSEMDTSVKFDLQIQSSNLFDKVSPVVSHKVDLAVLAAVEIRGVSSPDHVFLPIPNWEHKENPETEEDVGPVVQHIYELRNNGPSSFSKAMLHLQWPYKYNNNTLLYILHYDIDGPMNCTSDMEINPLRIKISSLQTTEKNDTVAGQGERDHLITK
T1 sequence (P06756 891-1048 partner limits assumed): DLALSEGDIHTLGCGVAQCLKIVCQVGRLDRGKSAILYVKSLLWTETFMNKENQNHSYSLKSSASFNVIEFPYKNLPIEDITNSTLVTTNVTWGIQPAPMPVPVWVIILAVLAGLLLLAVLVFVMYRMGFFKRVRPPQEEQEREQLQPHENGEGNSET
T1 sequence (P05106 27-788): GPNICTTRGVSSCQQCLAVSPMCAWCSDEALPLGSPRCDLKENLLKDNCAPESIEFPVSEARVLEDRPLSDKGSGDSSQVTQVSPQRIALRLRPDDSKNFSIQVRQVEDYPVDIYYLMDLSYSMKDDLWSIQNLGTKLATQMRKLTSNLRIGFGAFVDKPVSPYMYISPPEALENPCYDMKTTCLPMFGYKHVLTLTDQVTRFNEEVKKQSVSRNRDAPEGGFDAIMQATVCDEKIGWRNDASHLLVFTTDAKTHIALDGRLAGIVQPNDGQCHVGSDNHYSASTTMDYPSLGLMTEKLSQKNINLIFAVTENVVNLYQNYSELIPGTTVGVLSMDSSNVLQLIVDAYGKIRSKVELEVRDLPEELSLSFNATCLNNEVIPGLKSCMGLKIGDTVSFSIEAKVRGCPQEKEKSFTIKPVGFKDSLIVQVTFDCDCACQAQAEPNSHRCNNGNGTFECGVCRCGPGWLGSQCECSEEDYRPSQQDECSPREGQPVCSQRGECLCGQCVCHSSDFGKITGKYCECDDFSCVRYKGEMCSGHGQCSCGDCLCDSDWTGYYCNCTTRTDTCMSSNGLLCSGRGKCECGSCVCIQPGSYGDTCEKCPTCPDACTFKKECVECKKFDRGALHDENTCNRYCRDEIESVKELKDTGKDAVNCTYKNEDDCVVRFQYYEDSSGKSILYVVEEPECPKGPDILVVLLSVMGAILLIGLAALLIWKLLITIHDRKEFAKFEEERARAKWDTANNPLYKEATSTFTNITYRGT

CCCNC(=O)Nc1cccc(S(=O)(=O)Nc2cccc([C@@H](CC(=O)[O-])NC(=O)Nc3ccc(NC(=O)NCCOCCOCCOCCC(=O)N[C@@H](CC(=O)[O-])C(=O)N4CCC[C@H]4C(=O)N[C@H](C(=O)O[C@]4(CC)C(=O)OCc5c4cc4n(c5=O)Cc5c-4nc4ccccc4c5CC)C(C)C)cc3)c2)c1.[Na+].[Na+] [Example 1, disodium (4S)-4,11-diethyl-3,14-dioxo-3,4,12,14-tetrahydro-1H-pyrano[3′,4′: 6,7]indolizino [1,2-b]quinolin-4-yl 1-{(2S)-2-(carboxylatomethyl)-17-[4-({[(1R)-2-carboxylato-1-{3-[({3-[(propyl-carbamoyl)amino]phenyl}sulfonyl)amino]phenyl}ethyl]carbamoyl}amino)anilino]-4,17-dioxo-7,10,13-trioxa-3,16-diazaheptadecan-1-oyl}-L-prolyl-L-valinate]
Specificity factor (786-O cell line; 786-O, IC50 w/o elastase versus w elastase): 165 | pIC50 (786-O cell line; 72 h, MTT, 10 nM elastase, read-out: 786-O cell line IC50 w elastase): 8.96 | pIC50 (786-O cell line; 72 h, MTT, without elastase, read-out: 786-O cell line IC50 w/o elastase): 6.73 | pIC50 (786-O cell line; side by side comparison, elastase with higher enzymatic activity used, read-out: 786-O cell line IC50 w elastase): 9.77 | pIC50 (786-O cell line; side by side comparison, without elastase, read-out: 786-O cell line IC50 w/o elastase): 7.55 | T/C [1]: 0.1* | T/C [2]: 0.03* | T/C [3]: 0.06* | solubility at 24 h (Solubility in vehicles; read-out: Solubility in 0.9% NaCl in H2O): 465 µg/mL | solubility at 24 h (Solubility in vehicles; read-out: Solubility in 5% D-Mannitol): > 500 µg/mL | Stability in citric acid buffer at pH 4, 4h ([4]; 4 h): 100% | Stability in citric acid buffer at pH 4, 24h ([4]; 24 h): 95% | stable in rat plasma for [5]: > 24 h | pIC50 (αvβ3 receptor): 7.54 | pIC50 (HT29 cell line; 10 nM elastase, read-out: HT29 cell line IC50 w elastase): 8.06 | pIC50 (HT29 cell line; without elastase, read-out: HT29 cell line IC50 w/o elastase): 6.61 | T/C [6]: 0.19*
